Where no end group is shown, it is not given here.
Assays:
HLA-B*42:01 = HLA-B*42:01 (Homo sapiens, UniProt P01889, D138N/E176V/E187T/K202T/R180D); test: biochemical; type: binding
[1] = tested on: HIV-specific CD8^+ T-cell responses; test: IFNγ ELISpot with overlapping and optimal peptides; type: cell-based, human; details: IFNγ ELISpot responders among HLA-B*42:01^+ individuals, stratified for lack of HLA-B*07:02/39:10/42:02/81:01 co-expression (n=154)

Sequence: IIKDYGKQM [Int-IM9]
- Kd (HLA-B*42:01): 19 nM

Sequence: KVVPRRKAKIIKDYGKQM [Int-275]
- targeting frequency [1]: 53%

Reference: publication PMC4433859 (Journal of immunology (Baltimore, Md. : 1950), 2015)
